Experiments:
[1] = tested on: adults with major depressive disorder (MDD) who are at imminent risk of suicide; experiment: S-STS CMCM total score, Phase 2 Part 1; type: in vivo, human; details: for S-STS CMCM score: 90 mg IN+SOC, 24 hours post-administration; for S-STS mean score: baseline 21.9
Text: (§1) The S-STS CMCM (version 01/01/19) is a clinician-rated outcome measure which assesses SI/B on a standard 22-item scale, as well as multiple patient and clinician-rated items. The first 16 items are rated on a Likert-type scale ranging from “not at all” (0 units) to “extremely” (4 units), where select scoring (i.e., 4 specific items are scored based on the highest score on 2 of those items) yields a total score ranging from 0 units to 52 units. The final 6 items are used only when the patient misses a visit and is unable to complete the scale; if that missed visit is due to attempted or completed suicide, the possible maximum score is 100. The CMCM also yields 5 different single-item global assessments: 1) subject-rated likelihood of a suicide attempt; 2) subject-rated treatment needed; 3) clinician global severity of suicidal impulses, thoughts, and behaviors; 4) clinician judgment of suicide risk at this time and level of management needed for suicidality; and 5) clinician judgment of subject's likelihood of making a suicide attempt or of dying by suicide in the next 7 days.
(§2) The secondary endpoints are the change from baseline at 24 hours, as well as at Day 16, in the following: • (1) S-STS total score • (2) MADRS Total at Day 16 (only) • (3) Clinical Global Impression (CGI) of Severity for SI/B (CGIS-SI/B) and Change in SI/B (CGIC-SI/B) • (4) Patient Global Impression (PGI) of Severity for SI/B (PGIS-SI/B) and Change in SI/B (PGIC-SI/B • (5) S-STS Clinician-Rated Global Severity of Suicidal Impulses, Thoughts, and Behaviors • (6) S-STS Clinician judgment of subject's risk of a suicide attempt or death by suicide at this time • (7) S-STS Clinician judgment of subject's likelihood (risk) of making a suicide attempt or of dying by suicide in the next 7 days • (8) S-STS Subject-rated global severity of suicidal impulses, thoughts, and behavior • (9) S-STS Subject-rated treatment needed score • (10) MADRS item 10 response rate (response ≤3 units) • (11) MADRS Total response (total score ≥50% reduction from baseline) • (12) MADRS Total remission (total score ≤12 units)
Subjects who were hospitalized due to an imminent risk of suicide were enrolled according to the inclusion criteria. The trial was initiated in the hospital and all subjects received standard of care (SOC) therapy for the duration of the study. Subjects were released from the hospital (approximately Day 7) once stabilized and continued the study in an outpatient manner. […] Following the conclusion of the treatment period, a 2-week safety follow-up was also conducted to determine maintenance of treatment efficacy and to monitor for any additional safety events. See, FIG. 26.

[2] = tested on: adults with major depressive disorder (MDD) who are at imminent risk of suicide; experiment: S-STS CMCM Risk of Suicide at Within the Next 7 Days; type: in vivo, human; details: 90 mg IN+SOC
Text: as §1, §2

CNC1(c2ccccc2Cl)CCCCC1=O (racemic) [intranasal racemic ketamine, 1:1 mixture of the two enantiomers of ketamine: (R)-2-(2-chlorophenyl)-2-(methylamino)cyclohexanone and (S)-2-(2-chlorophenyl)-2-(methylamino)cyclohexanone]
S-STS CMCM score ([1]; Subject 1, from 18 units, range 0-52): zero | S-STS CMCM score ([1]; Subject 2, from 22 units): 3 units | S-STS CMCM mean (SD) change from baseline ([1]; 17 subjects enrolled, 24 hours post-dose): −20.6 (6.34) | S-STS CMCM mean (SD) change from baseline ([1]; 17 subjects enrolled, Day 16): −20.9 (3.66) | S-STS: patients (1 patient) with 4 points within-patient change ([1]; Day 1): 6% | S-STS: patients with >14 points within-patient change from baseline ([1]; Day 1): 94% | S-STS mean score ([1]; Day 1): 1.7 | S-STS mean score ([1]; Day 16): 0.0 | S-STS mean score ([1]; Day 29): 0.0 | S-STS CMCM mean (SD) change from baseline ([1]; final follow-up on Day 29/30): −21.1 (3.71) | mean S-STS CMCM score ([1]; final follow-up on Day 29/30): 0.0 (0.00) | S-STS CMCM Risk of Suicide at Within the Next 7 Days score ([2]; Subject 1, 24 hours post-administration, from 5 units, range 1-10): 2 units | S-STS CMCM Risk of Suicide at Within the Next 7 Days score ([2]; Subject 2, 24 hours post-administration, baseline 7 units): 1 unit | S-STS CMCM Risk of Suicide at Within the Next 7 Days score ([2]; the scores (Subjects 1 and 2), Day 4): 1 unit | S-STS CMCM Risk of Suicide at Within the Next 7 Days score ([2]; the scores (Subjects 1 and 2), Day 8): 0 units

From patent US20240261236A1, “METHODS OF USING NMDA RECEPTOR ANTAGONISTS” (Seelos Therapeutics, Inc., priority 2021, published 2024)
